Measurements from patent US20040063662A1, “Selenophene anti-tumor agents” (priority 1996, published 2004).
In brackets after ≈: the same amount, converted by molar mass. Several values for one entry are separate records, joined by “and”; a condition that tells them apart may be missing. Equal entries are not always repeated. Where two headings read alike, the source gives them in different places.

Tests used:
[1] = tested on: ras-transformed human bronchial epithelial cells (TBE); experiment: Selective cytotoxicity microculture assay, ras-transformed bronchial epithelial cells; format: cell-based
[2] = target: T1, 50:50 mixture of recombinant mouse PKCα and mouse PKCβ2; experiment: Protein Kinase C (PKC) screening assay; format: biochemical; conditions: Inhibition of Protein Kinase C
T1 construct: The enzymes are expressed in Sf9 insect cells from recombinant baculovirus and partially purified on DEAE-cellulose and Sephacryl 200 gel filtration
Description: The Protein Kinase C (PKC) screening assay utilized in the following experiments is similar to standard PKC assays used by many investigators. Its primary features are that 1) the assay utilizes a 50:50 mixture of recombinant mouse PKCα and mouse PKCβ2; 2) employs histone as phosphate-accepting substrate; and 3) the PKC enzymatic activity is activated with phosphatidylserine, TPA and low concentration of calcium, so that both calcium and TPA are somewhat limiting for the extent of activation. In this manner the assay is sensitive to inhibitors of PKC activation. A more detailed description of the assay is provided in the following paragraphs.
The recombinant PKC formulation is a mixture (equal parts by activity) of mouse PKCα and mouse PKCβ2. The enzymes are expressed in Sf9 insect cells from recombinant baculovirus and partially purified on DEAE-cellulose and Sephacryl 200 gel filtration. Sufficient PKC is added to each reaction to provide approximately 4 pmols phosphate transferred in 30 minute (per total reaction.) The reaction is linear over the time when 4 pmols of phosphate is transferred and the reaction remains linear well beyond this time frame.
The PKC screening assay is performed in 96 well polystyrene U bottom micro titer plates, in a total reaction volume of 50 ul. Solution manipulations are performed during the assay utilize a Rainin, motorized EDP-plus M8 eight-channel micropipettor.
In some cases 50% DMSO:water, water, or methanol is substituted (if essential) for the solvent. At least 25 μl of the highest concentration sample to be assayed is transferred to a well in a 96 well U-bottom polystyrene assay plate. Serial 5-fold or 10-fold dilutions (depending on the dose-range desired) are made using the EDP-plus M8 eight-channel pipettor in dilute mode and mixing by repipetting. Using the 8-channel pipettor, 2 μl of each dilution is transferred to the appropriate wells of the plate(s) to be used for each assay. Duplicate assays are performed for each dose, with each assay, allowing six wells (half the row) for three-dose assays, or 12 wells (the whole row) for six-dose assays. In general, extracts and fractions are assayed at three doses: 400, 40 an 4 ug/ml, while pure compounds are tested at six doses: 400, 80, 16, 3.2, 0.64, 0.128 ([…]).

[3] = tested on: human renal carcinoma cells (A-498); experiment: Selective cytotoxicity microculture assay, human renal carcinoma
[4] = tested on: normal human renal cells (RPTEC); experiment: Selective cytotoxicity microculture assay, normal human renal cells; format: cell-based
[5] = Selective cytotoxicity microculture assay, human renal carcinoma; conditions: human, SCI (selectively cytotoxicity index), GI50 (RPTEC)/GI50 (A-498)
[6] = In vitro activity of glycoside prodrug (preliminary); format: cell-based; conditions: preliminary results
Description: (§1) a. […] Scheme 8 illustrates a procedure utilized for the synthesis of glucoside, galactoside or, glucuronic acid analogs of α-terselenophene: [drawing 60]

[7] = In vivo activity of glycoside prodrug (preliminary); conditions: preliminary results
Description: as §1

[8] = Homo sapiens, RPTEC, read-out: GI50
[9] = Homo sapiens, Epithelial cell, read-out: GI50
[10] = Homo sapiens, A498, A-498 human renal carcinoma

Structure (SMILES) | IC50 [2] | GI50 [4, 8] [µg/mL] | GI50 [1, 9] [µg/mL] | selectivity ratio [5] | GI50 [3, 10] [µg/mL] | also measured
O=Cc1ccc(-c2ccc(-c3ccc[se]3)[nH]2)[se]1 [compound 676634] | 0.8 µg/mL (≈ 2.27 µM) | – | – | – | – | GI50 [1]: 0.0003 µg/mL and 0.006 µg/mL; GI50 ([3]; A-498 human renal carcinoma): 0.0006 µg/mL and 0.003 µg/mL
O=Cc1ccc(-c2ccc(-c3ccc[se]3)[se]2)[se]1 [compound 675244] | 1 × 10^0 μg/ml | – | – | – | – | –
O=Cc1ccc(-c2ccc(-c3ccc[se]3)s2)[se]1 [compound 676629] | 0.2 µg/mL (≈ 0.54 µM) | – | – | – | – | –
c1c[se]c(-c2ccc(-c3ccc[se]3)[nH]2)c1 [compound 676633] | 6 × 10^0 μg/ml | 20 (≈ 61.5 µM) | 10 (≈ 30.8 µM) | < 1 | 100 (≈ 308 µM) | –
c1c[se]c(-c2ccc(-c3ccc[se]3)[se]2)c1 [compound 674973] | 7 × 10^0 μg/ml | 4 (≈ 10.3 µM) | 4 (≈ 10.3 µM) | 1 | 3 (≈ 7.71 µM) | –
OC[C@H]1O[C@@H](OCc2ccc(-c3ccc(-c4cccs4)s3)s2)[C@H](O)[C@@H](O)[C@@H]1O [β-D-glucoside of 2-hydroxymethyl-α-terthiophene] | – | – | – | – | – | in vitro activity [6]: retains; in vivo activity [7]: retains
OCc1ccc(-c2ccc(-c3ccc[se]3)[nH]2)[se]1 [compound 676635] | 8 × 10^0 μg/ml | 2 (≈ 5.63 µM) | 20 (≈ 56.3 µM) | > 1000 | < 0.001 | –
O=Cc1ccc(-c2ccc(-c3ccc(C=O)[se]3)s2)[se]1 [compound 676630] | 0.9 µg/mL (≈ 2.26 µM) | – | – | – | – | –
O=Cc1ccc(-c2ccc(-c3ccc(C=O)s3)[se]2)s1 [compound 675345] | 0.9 µg/mL (≈ 2.56 µM) | – | – | – | – | –
COc1cccc2c1C(=O)c1c(O)c3c(c(O)c1C2=O)C[C@@](O)(C(=O)CO)C[C@@H]3O[C@H]1C[C@H](N)[C@H](O)[C@H](C)O1 [compound 123127] | – | – | – | – | – | GI50 [4]: 0.05 µg/mL (≈ 0.092 µM); GI50 [1]: 0.03 µg/mL (≈ 0.0552 µM); GI50 ([3]; A-498 human renal carcinoma): 0.05 µg/mL (≈ 0.092 µM); SCI (selectively cytotoxicity index) ([3]; GI50 (RPTEC)/GI50 (A-498)): 1
O=Cc1ccc(-c2ccc(-c3ccc(C=O)[se]3)[se]2)[se]1 [compound 675245] | 1 × 10^0 μg/ml | – | – | – | – | –
OCc1ccc(-c2ccc(-c3cccs3)[se]2)s1 [compound 675344] | 50 µg/mL (≈ 154 µM) | – | – | > 1000 | – | GI50 [1]: <10^−2 μg/ml and 7 × 10^−6 μg/ml; GI50 ([3]; A-498 human renal carcinoma): 3e-07 µg/mL and 6e-08 µg/mL
O=Cc1ccc(-c2ccc(-c3cccs3)[se]2)s1 [compound 675346] | 0.5 µg/mL (≈ 1.55 µM) | – | – | – | – | –
c1csc(-c2ccc(-c3cccs3)[se]2)c1 [compound 675347] | 1 × 10^0 μg/ml | 20 (≈ 67.7 µM) | 10 (≈ 33.9 µM) | < 1 | 30 (≈ 102 µM) | –
c1c[se]c(-c2ccc(-c3ccc[se]3)s2)c1 [compound 676628] | 1 × 10^0 μg/ml | 400 (≈ 1170 µM) | 100 (≈ 292 µM) | 5 | 80 (≈ 234 µM) | –
c1csc(-c2ccc(-c3ccc[se]3)s2)c1 | – | – | – | – | – | melting point: 103 to 104 °C
